Measurements: BindingDB's records for doi:10.1016/s0960-894x(01)00026-9 (University of Minnesota, 2001)
pIC50: −log10 of the molar value.

Columns and labels:
[1] = molecular target: Serine/threonine-protein phosphatase PP1 catalytic subunit (Oryctolagus cuniculus); test: Inhibitory concentration against Protein phosphatase 1(10 nM) isolated from rabbit muscle
[2] = Inhibitory concentration against Protein phosphatase 2A (25 nM) isolated from bovine myocardial tissue

Structure (SMILES) | pIC50 [1] | pIC50 [2]
C=C1[C@@H](O)[C@@H]2O[C@]3(CC[C@H](/C=C/[C@@H](C)[C@@H]4CC(C)=C[C@@]5(O[C@H](C[C@@](C)(O)C(=O)O)CC[C@H]5O)O4)O3)CC[C@H]2O[C@@H]1CO [okadaic acid analogue] | 4.03 | 6.52
C=C1[C@@H](O)[C@@H]2O[C@]3(CC[C@H](/C=C/[C@@H](C)[C@@H]4CC(C)=C[C@@]5(O[C@H](C[C@@](C)(O)C(=O)O)CC[C@H]5O)O4)O3)CC[C@H]2O[C@@H]1[C@@H](O)C[C@H](C)[C@H]1O[C@@]2(CCCCO2)CC[C@H]1C [okadaic acid analogue] |  | 8.15
C=C1[C@@H](O)[C@@H]2O[C@]3(CCCO3)CC[C@H]2O[C@@H]1[C@@H](O)C[C@H](C)[C@H]1O[C@@]2(CCCCO2)CC[C@H]1C [okadaic acid analogue] |  | < 3.00
